Measured values from patent US20110124647A1, “INSECTICIDAL DERIVATIVES OF SUBSTITUTED BENZYLAMINES” (priority 2007, published 2011).

Columns and labels:
[1] = system: green peach aphid (Myzus persicae); experiment: Myzus test (MYZUPE), spray treatment; type: in vivo; conditions: 20 g/ha
Procedure: [table] To produce a suitable preparation of active compound, 1 part by weight of active compound is mixed with the stated amounts of solvent and emulsifier, and the concentrate is diluted with emulsifier-containing water to the desired concentration. Disks of Chinese cabbage (Brassica pekinensis) which are infested with all stages of the green peach aphid (Myzus persicae) are sprayed with a preparation of active compound of the desired concentration. After the desired period of time, the effect in % is determined. 100% means that all aphids have been killed; 0% means that none of the aphids have been killed. [table] To produce a suitable preparation of active compound, 1 part by weight of active compound is mixed with the stated amounts of solvent and emulsifier, and the concentrate is diluted with emulsifier-containing water to the desired concentration. Disks of Chinese cabbage (Brassica pekinensis) which are infested with all stages of the green peach aphid (Myzus persicae) are sprayed with a preparation of active compound of the desired concentration. After the desired period of time, the effect in % is determined. 100% means that all aphids have been killed; 0% means that none of the aphids have been killed.

[2] = system: greenhouse red spider mite (Tetranychus urticae); experiment: Tetranychus test, OP-resistant (TETRUR), spray treatment; type: in vivo; conditions: 100 g/ha
Procedure: To produce a suitable preparation of active compound, 1 part by weight of active compound is mixed with the stated amounts of solvents and emulsifier, and the concentrate is diluted with emulsifier-containing water to the desired concentration.
Discs of bean leaves (Phaseolus vulgaris) which are infested by all stages of the greenhouse red spider mite (Tetranychus urticae) are sprayed with a preparation of active compound of the desired concentration.
After the desired period of time, the effect in % is determined. 100% means that all spider mites have been killed; 0% means that none of the spider mites have been killed.

Compound: COCCNC(=S)N1CCOC1=NC(C)c1ccccc1 (stereo not drawn) [Compound 2]
- 1. MYZUPE spray appl. % 6 d [1]: 100%
- 2. TETRUR spray appl. % 6 d [2]: 90%

Compound: C[C@H](NC(=O)NCCCl)c1ccccc1 [1-(2-chloroethyl)-3-[(1S)-1-phenylethyl]urea]
- logP (Log P): 1.76

Compound: CC(NC(=O)NCCCl)c1ccccc1Cl (stereo not drawn) [1-(2-chloroethyl)-3-[1-(2-chlorophenyl)ethyl]urea]
- logP (Log P): 2.3

Compound: C[C@H](/N=C1\OCCN1C(=S)NCC#N)c1ccccc1 [Compound 94, (2Z)—N-(cyanomethyl)-2-[(1-phenylethyl)imino]-1,3-oxazolidine-3-carbothioamide]
- logP (Log P): 3.07

Compound: COCCNC(=S)N1CCO/C1=N\C(C)c1ccccc1Cl (stereo not drawn) [Compound 10, (2Z)-2-{[1-(2-chlorophenyl)ethyl]imino}-N-(2-methoxyethyl)-1,3-oxazolidine-3-carbothioamide]
- logP (Log P): 4.08

Compound: CCC(N=C1OCCN1C(=S)NCc1ccccc1)c1ccccc1 (stereo not drawn) [compound 68]
- log P (acidic) (Log P; acidic, Phys. Data cells marked (C)): 4.68 (C)

Compound: CC(N=C1OCCN1C(=S)NCC(F)(F)F)c1ccccc1 (stereo not drawn) [Compound 3]
- 1. MYZUPE spray appl. % 6 d [1]: 100%
- 2. TETRUR spray appl. % 6 d [2]: 70%
